How the values were obtained:
[1] = test system: caterpillars of the army worm (Spodoptera frugiperda); experiment: Spodoptera frugiperda test (spray treatment), Example B; assay type: in vivo; settings: Table B, 500 g/ha active compound
Method: (§1) Spodoptera frugiperda Test (Spray Treatment) [table] To produce a suitable preparation of active compound, 1 part by weight of active compound is mixed with the stated amounts of solvents and emulsifier, and the concentrate is diluted with emulsifier-containing water to the desired concentration. Discs of maize leaves (Zea mays) are sprayed with a preparation of active compound of the desired concentration and, after they have dried, populated with caterpillars of the army worm (Spodoptera frugiperda). After the desired period of time, the activity in % is determined 100% means that all caterpillars have been killed; 0% means that none of the caterpillars have been killed.

[2] = test system: monocotyledonous and dicotyledonous weed and crop plants; experiment: Herbicidal post-emergence action, Example J; assay type: in vivo; settings: Greenhouse, 320 g a.i./ha, about 3 weeks
Method: Herbicidal Post-Emergence Action Seeds of monocotyledonous and dicotyledonous weed and crop plants are placed into sandy loam in woodfibre pots, covered with soil and cultivated in a greenhouse under good growth conditions. 2-3 weeks after sowing, the test plants are treated at the one-leaf stage. The test compounds formulated as wettable powders (WP) are, in various dosages with a water application rate of 600 l/ha (converted), with 0.2% of wetting agent added, sprayed onto the green parts of the plants. After the test plants have been kept in the greenhouse under optimum growth conditions for about 3 weeks, the effect of the preparations is rated visually in comparison to untreated controls (herbicidal effect in percent (%): 100% effect=plants have died, 0% effect=like control plants).

[3] = test system: larvae of the mustard beetle (Phaedon cochleariae); experiment: Phaedon test (spray treatment), Example E; assay type: in vivo; settings: Table E
Method: as §1, with “Phaedon Test” for “Spodoptera frugiperda Test”, “of Chinese cabbage (Brassica pekinensis)” for “of maize leaves (Zea mays)”, “with larvae” for “with caterpillars”, “the mustard beetle (Phaedon cochleariae).” for “the army worm (Spodoptera frugiperda).”, “all beetle larvae” for “all caterpillars”, “the beetle larvae” for “the caterpillars”

Sphaerotheca fuliginea = experiment: Sphaerotheca test (cucumber)/protective, Example H; assay type: in vivo; settings: Sphaerotheca fuliginea on cucumber, protective, application rate 750 g/ha, evaluation 7 days after inoculation
Method: Sphaerotheca Test (Cucumber)/Protective [table] To produce a suitable preparation of active compound, 1 part by weight of active compound is mixed with the stated amounts of solvent and emulsifier, and the concentrate is diluted with water to the desired concentration. To test for protective activity, young cucumber plants are sprayed with the preparation of active compound at the stated application rate. 1 day after the treatment, the plants are inoculated with a spore suspension of Sphaerotheca fuliginea. The plants are then placed in a greenhouse at 70% relative atmospheric humidity and a temperature of 23° C. Evaluation is carried out 7 days after the inoculation. 0% means an efficacy which corresponds to that of the control, whereas an efficacy of 100% means that no infection is observed.

Meloidogyne incognita = experiment: Meloidogyne test, Example C; assay type: in vivo; settings: Table C, 20 ppm active compound, nematicidal effect by formation of galls
Method: Meloidogyne Test [table] To produce a suitable preparation of active compound, 1 part by weight of active compound is mixed with the stated amounts of solvent, and the concentrate is diluted with water to the desired concentration. Containers are filled with sand, solution of active compound, Meloidogyne incognita egg/larvae suspension and lettuce seeds. The lettuce seeds germinate and the plants develop. On the roots, galls are formed. After the desired period of time, the nematicidal effect is determined in % by the formation of galls. 100% means that no galls have been found; 0% means that the number of galls on the treated plants corresponds to that of the untreated control.

[4] = test system: green peach aphid (Myzus persicae); experiment: Myzus test (spray treatment), Example D; assay type: in vivo; settings: Table D
Method: Myzus Test (Spray Treatment)
(§2) To produce a suitable preparation of active compound, 1 part by weight of active compound is mixed with the stated amounts of solvents and emulsifier, and the concentrate is diluted with emulsifier-containing water to the desired concentration.
Discs of Chinese cabbage (Brassica pekinensi), which are infested by all stages of the green peach aphid (Myzus persicae) are sprayed with a preparation of active compound of the desired concentration.
After the desired period of time, the activity in % is determined 100% means that all aphids have been killed; 0% means that none of the aphids have been killed.

[5] = test system: caterpillars of the army worm (Spodoptera frugiperda); experiment: Spodoptera frugiperda test (spray treatment), Example F; assay type: in vivo; settings: maize leaf discs, 500 g/ha
Method: as §1

[6] = test system: greenhouse red spider mite (Tetranychus urticae); experiment: Tetranychus test (OP-resistant/spray treatment), Example G; assay type: in vivo; settings: Tetranychus urticae (OP-resistant), bean leaf discs, spray treatment, 500 g/ha
Method: Tetranychus Test (OP-Resistant/Spray Treatment)
as §2
Discs of bean leaves (Phaseolus vulgaris) which are infested by all stages of the greenhouse red spider mite (Tetranychus urticae) are sprayed with a preparation of active compound of the desired concentration.
After the desired period of time, the activity in % is determined 100% means that all spider mites have been killed; 0% means that none of the spider mites have been killed.

[7] = test system: larvae of the mustard beetle (Phaedon cochleariae); experiment: Phaedon test (spray treatment), Example A; assay type: in vivo; settings: Table A, 500 g/ha active compound
Method: as §1, with “Phaedon Test” for “Spodoptera frugiperda Test”, “of Chinese cabbage (Brassica pekinensis)” for “of maize leaves (Zea mays)”, “with larvae” for “with caterpillars”, “the mustard beetle (Phaedon cochleariae).” for “the army worm (Spodoptera frugiperda).”, “all beetle larvae” for “all caterpillars”, “the beetle larvae” for “the caterpillars”

## CCOC(=O)Oc1c(-c2cc(-c3ccc(Cl)cc3)ccc2C)c(=O)n2n1CCCC2 [Ex. I-1-c-4]
[1]
  Kill rate in % after 7d: 100%

## Cc1ccc(-c2cc(Cl)ccc2Cl)cc1-c1c(O)n2n(c1=O)CCCC2 [Example I-1-a-12]
[2]
  herbicidal effect in percent, Avena fatua: 80%
  herbicidal effect in percent, Lolium: 70%
  herbicidal effect in percent, Setaria: 70%

## Cc1ccc(-c2ccc(C(F)(F)F)cc2)cc1-c1c(OC(=O)C(C)(C)C)n2n(c1=O)CCCC2 [Ex. I-1-b-20]
[2]
  herbicidal effect in percent, Avena fatua: 80%
  herbicidal effect in percent, Lolium: 80%
  herbicidal effect in percent, Setaria: 90%

## Cc1ccc(-c2ccc(F)cc2)cc1-c1c(OC(=O)C(C)(C)C)n2n(c1=O)CCCC2 [Example I-1-b-1]
[3]; 500 g/ha active compound
  Kill rate in % after 7d: 100%
Sphaerotheca fuliginea
  Efficacy in %: 94%
Meloidogyne incognita
  Effect in % after 14d: 90%

## Cc1ccc(-c2ccc(F)cc2)cc1-c1c(O)n2n(c1=O)CCCC2 [Example I-1-a-1]
other
  melting point: 172 °C
Meloidogyne incognita
  Effect in % after 14d: 80%

## Cc1ccc(-c2ccc(F)cc2F)cc1-c1c(OC(=O)C(C)(C)C)n2n(c1=O)CCOCC2 [Ex. I-2-b-15]
[4]; 500 g/ha active compound
  Kill rate in % after 5d: 100%
[5]
  Kill rate in % after 7d: 100%

## CCOC(=O)Oc1c(-c2cc(-c3ccc(C(F)(F)F)cc3)ccc2C)c(=O)n2n1CCCC2 [Ex. I-1-c-19]
[2]
  herbicidal effect in percent, Avena fatua: 70%
  herbicidal effect in percent, Lolium: 80%
  herbicidal effect in percent, Setaria: 100%

## Cc1ccc(-c2cc(Cl)cc(Cl)c2)cc1-c1c(OC(=O)C(C)(C)C)n2n(c1=O)CCCC2 [Ex. I-1-b-14]
[4]; 500 g/ha active compound
  Kill rate in % after 5d: 100%

## CCOC(=O)Oc1c(-c2cc(-c3ccc(F)cc3F)ccc2C)c(=O)n2n1CCCC2 [Ex. I-1-c-15]
[3]; 500 g/ha active compound
  Kill rate in % after 7d: 100%
[4]; 500 g/ha active compound
  Kill rate in % after 5d: 100%
[6]
  Kill rate in % after 5d: 100%

## CCOC(=O)Oc1c(-c2cc(-c3cc(F)ccc3F)ccc2C)c(=O)n2n1CCOCC2 [Ex. I-2-c-16]
[4]; 500 g/ha active compound
  Kill rate in % after 5d: 100%

## Cc1ccc(-c2ccc(F)c(Cl)c2)cc1-c1c(OC(=O)C(C)(C)C)n2n(c1=O)CCCC2 [Ex. I-1-b-17]
[4]; 500 g/ha active compound
  Kill rate in % after 5d: 90%
[5]
  Kill rate in % after 7d: 100%

## Cc1ccc(-c2ccc(Cl)cc2)cc1-c1c(O)n2n(c1=O)CCCC2 [Example I-1-a-4]
[7]
  Kill rate in % after 7d: 100%

## Cc1ccc(-c2ccc(Cl)cc2Cl)cc1-c1c(OC(=O)C(C)(C)C)n2n(c1=O)CCCC2 [Ex. I-1-b-11]
[4]; 500 g/ha active compound
  Kill rate in % after 5d: 100%
[5]
  Kill rate in % after 7d: 100%

## Cc1ccc(-c2ccc(Cl)c(Cl)c2)cc1-c1c(OC(=O)C(C)(C)C)n2n(c1=O)CCOCC2 [Ex. I-2-b-13]
[4]; 500 g/ha active compound
  Kill rate in % after 5d: 100%

## CCOC(=O)Oc1c(-c2cc(-c3ccc(F)cc3)ccc2C)c(=O)n2n1CCCC2 [Example I-1-c-1]
[3]; 100 g/ha active compound
  Kill rate in % after 7d: 100%
[4]; 100 g/ha active compound
  Kill rate in % after 5d: 100%
Sphaerotheca fuliginea
  Efficacy in %: 80%
[2]
  herbicidal effect in percent, Avena fatua: 90%
  herbicidal effect in percent, Lolium: 90%
  herbicidal effect in percent, Setaria: 80%

## COc1ccccc1-c1ccc(C)c(-c2c(OC(=O)C(C)(C)C)n3n(c2=O)CCOCC3)c1 [Ex. I-2-b-21]
[4]; 500 g/ha active compound
  Kill rate in % after 5d: 100%

## Cc1ccc(-c2ccc(C(C)C)cc2)cc1-c1c(OC(=O)C(C)(C)C)n2n(c1=O)CCCC2 [Ex. I-1-b-30]
[4]; 500 g/ha active compound
  Kill rate in % after 5d: 100%

## Cc1ccc(-c2ccc(Cl)cc2)cc1-c1c(OC(=O)C(C)(C)C)n2n(c1=O)CCCC2 [Ex. I-1-b-4]
[3]; 500 g/ha active compound
  Kill rate in % after 7d: 100%
[6]
  Kill rate in % after 5d: 100%
[1]
  Kill rate in % after 7d: 100%

## Cc1ccc(-c2cccc(Cl)c2)cc1-c1c(OC(=O)C(C)(C)C)n2n(c1=O)CCCC2 [Ex. I-1-b-3]
Sphaerotheca fuliginea
  Efficacy in %: 90%

## Cc1ccc(-c2ccc(C(C)C)cc2)cc1-c1c(OC(=O)C(C)(C)C)n2n(c1=O)CCOCC2 [Ex. I-2-b-30]
[4]; 500 g/ha active compound
  Kill rate in % after 5d: 100%

## CCOC(=O)Oc1c(-c2cc(-c3ccc(F)cc3)ccc2C)c(=O)n2n1CCOCC2 [Ex. I-2-c-6]
[4]; 100 g/ha active compound
  Kill rate in % after 5d: 100%
Meloidogyne incognita
  Effect in % after 14d: 90%

## COc1cccc(-c2ccc(C)c(-c3c(O)n4n(c3=O)CCCC4)c2)c1 [Example I-1-a-22]
[2]; Amaranthus
  herbicidal effect in percent, Amaranthus: 70%
[2]
  herbicidal effect in percent, Lolium: 100%
  herbicidal effect in percent, Setaria: 90%

## Cc1ccc(-c2ccc(Cl)cc2)cc1-c1c(OC(=O)C(C)C)n2n(c1=O)CCOCC2 [Ex. I-2-b-31]
[4]; 500 g/ha active compound
  Kill rate in % after 5d: 100%

## Cc1ccc(-c2ccc(F)cc2)cc1-c1c(OC(=O)C2CC2)n2n(c1=O)CCCC2 [Ex. I-1-b-33]
[4]; 100 g/ha active compound
  Kill rate in % after 5d: 100%
